Key:
Assay type in all cases: biochemical
LCK = LCK (Homo sapiens, UniProt P06239); test: Inhibition of a panel of kinases, in vitro HotSpot kinase assay: LCK; conditions: D-compounds panel data; 1 μM ATP; read-out: IC50 LCK
ITK = target: T1, ITK (Homo sapiens, UniProt Q08881); test: Inhibition of a panel of kinases, in vitro HotSpot kinase assay: ITK; conditions: D-compounds panel data; 1 μM ATP
T1 sequence (Q08881 1-620): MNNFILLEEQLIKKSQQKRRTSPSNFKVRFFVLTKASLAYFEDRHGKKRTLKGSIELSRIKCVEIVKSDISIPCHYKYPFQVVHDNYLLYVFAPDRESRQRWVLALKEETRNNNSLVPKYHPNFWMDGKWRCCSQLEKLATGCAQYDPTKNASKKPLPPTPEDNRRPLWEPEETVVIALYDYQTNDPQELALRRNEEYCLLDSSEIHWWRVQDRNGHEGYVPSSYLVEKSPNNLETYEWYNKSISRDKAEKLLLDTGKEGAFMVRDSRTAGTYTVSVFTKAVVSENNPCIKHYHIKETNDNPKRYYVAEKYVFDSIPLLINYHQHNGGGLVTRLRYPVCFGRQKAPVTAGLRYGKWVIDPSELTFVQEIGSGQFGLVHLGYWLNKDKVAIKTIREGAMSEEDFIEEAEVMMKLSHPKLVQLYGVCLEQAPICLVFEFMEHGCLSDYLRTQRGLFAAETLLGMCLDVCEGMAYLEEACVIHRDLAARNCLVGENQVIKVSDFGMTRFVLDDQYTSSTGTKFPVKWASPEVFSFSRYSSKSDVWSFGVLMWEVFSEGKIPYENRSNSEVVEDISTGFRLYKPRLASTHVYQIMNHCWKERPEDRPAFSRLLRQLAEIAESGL
Procedure: (§1) The degree of inhibition of a panel of kinases is determined using the in vitro HotSpot kinase assay (purified enzymes, ^33P-ATP, an appropriate substrate and 1 μM ATP).

TEC = target: T2, TEC (Homo sapiens, UniProt P42680); test: Inhibition of a panel of kinases, in vitro HotSpot kinase assay: TEC; conditions: D-compounds panel data; 1 μM ATP
T2 sequence (P42680 1-631): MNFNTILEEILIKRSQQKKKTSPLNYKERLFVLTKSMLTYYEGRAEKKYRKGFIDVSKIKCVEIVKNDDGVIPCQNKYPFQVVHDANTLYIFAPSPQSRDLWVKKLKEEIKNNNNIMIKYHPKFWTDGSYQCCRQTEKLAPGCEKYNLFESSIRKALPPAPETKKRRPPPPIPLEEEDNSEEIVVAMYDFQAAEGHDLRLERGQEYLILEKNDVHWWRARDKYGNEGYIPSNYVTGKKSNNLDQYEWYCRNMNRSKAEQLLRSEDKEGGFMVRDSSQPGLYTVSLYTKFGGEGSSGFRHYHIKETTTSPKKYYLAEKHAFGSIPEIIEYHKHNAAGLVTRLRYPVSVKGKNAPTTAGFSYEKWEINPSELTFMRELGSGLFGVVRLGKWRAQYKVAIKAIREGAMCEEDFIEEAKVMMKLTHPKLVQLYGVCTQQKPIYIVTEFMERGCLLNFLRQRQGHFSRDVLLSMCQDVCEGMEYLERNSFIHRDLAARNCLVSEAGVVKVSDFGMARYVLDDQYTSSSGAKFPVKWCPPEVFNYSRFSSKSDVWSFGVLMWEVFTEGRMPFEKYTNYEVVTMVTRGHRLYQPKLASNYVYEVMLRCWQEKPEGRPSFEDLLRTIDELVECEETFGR
Procedure: as §1

JAK3 = target: T3, JAK3 (Homo sapiens, UniProt P52333); test: Inhibition of a panel of kinases, in vitro HotSpot kinase assay: JAK3; conditions: D-compounds panel data; 1 μM ATP; read-out: IC50 JAK3
T3 sequence (P52333 1-1124): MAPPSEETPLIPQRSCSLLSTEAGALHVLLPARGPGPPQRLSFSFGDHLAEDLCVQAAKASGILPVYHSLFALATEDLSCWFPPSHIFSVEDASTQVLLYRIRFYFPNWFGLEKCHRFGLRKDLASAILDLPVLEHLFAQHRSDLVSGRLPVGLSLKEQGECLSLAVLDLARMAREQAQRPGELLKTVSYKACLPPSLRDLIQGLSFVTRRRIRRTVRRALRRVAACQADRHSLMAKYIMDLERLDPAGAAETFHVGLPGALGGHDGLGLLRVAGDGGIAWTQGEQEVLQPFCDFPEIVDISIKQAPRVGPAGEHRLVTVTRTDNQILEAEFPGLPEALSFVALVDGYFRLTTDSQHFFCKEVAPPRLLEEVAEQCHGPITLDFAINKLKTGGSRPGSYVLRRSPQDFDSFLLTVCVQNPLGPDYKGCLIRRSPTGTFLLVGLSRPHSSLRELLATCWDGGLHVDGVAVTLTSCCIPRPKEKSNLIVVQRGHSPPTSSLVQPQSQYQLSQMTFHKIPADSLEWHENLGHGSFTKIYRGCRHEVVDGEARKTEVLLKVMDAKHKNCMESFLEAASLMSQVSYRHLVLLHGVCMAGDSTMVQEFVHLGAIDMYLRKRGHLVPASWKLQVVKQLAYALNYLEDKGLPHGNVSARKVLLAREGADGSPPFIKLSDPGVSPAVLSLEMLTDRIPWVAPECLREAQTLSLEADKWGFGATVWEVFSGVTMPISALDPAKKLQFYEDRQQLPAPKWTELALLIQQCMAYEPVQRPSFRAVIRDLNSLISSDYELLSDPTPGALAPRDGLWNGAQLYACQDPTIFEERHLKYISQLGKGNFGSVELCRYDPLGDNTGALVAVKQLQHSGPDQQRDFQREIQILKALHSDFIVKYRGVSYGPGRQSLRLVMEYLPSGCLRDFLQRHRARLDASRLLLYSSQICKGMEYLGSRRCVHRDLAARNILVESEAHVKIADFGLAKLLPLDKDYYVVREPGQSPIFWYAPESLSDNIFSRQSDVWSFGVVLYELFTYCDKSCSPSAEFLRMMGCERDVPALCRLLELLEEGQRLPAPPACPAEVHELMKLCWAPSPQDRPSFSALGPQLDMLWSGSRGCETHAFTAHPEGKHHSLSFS

SRC = SRC (Homo sapiens, UniProt P12931); test: Inhibition of a panel of kinases, in vitro HotSpot kinase assay: SRC; conditions: D-compounds panel data; 1 μM ATP
Procedure: as §1

SRC, sequence (P12931 whole entry): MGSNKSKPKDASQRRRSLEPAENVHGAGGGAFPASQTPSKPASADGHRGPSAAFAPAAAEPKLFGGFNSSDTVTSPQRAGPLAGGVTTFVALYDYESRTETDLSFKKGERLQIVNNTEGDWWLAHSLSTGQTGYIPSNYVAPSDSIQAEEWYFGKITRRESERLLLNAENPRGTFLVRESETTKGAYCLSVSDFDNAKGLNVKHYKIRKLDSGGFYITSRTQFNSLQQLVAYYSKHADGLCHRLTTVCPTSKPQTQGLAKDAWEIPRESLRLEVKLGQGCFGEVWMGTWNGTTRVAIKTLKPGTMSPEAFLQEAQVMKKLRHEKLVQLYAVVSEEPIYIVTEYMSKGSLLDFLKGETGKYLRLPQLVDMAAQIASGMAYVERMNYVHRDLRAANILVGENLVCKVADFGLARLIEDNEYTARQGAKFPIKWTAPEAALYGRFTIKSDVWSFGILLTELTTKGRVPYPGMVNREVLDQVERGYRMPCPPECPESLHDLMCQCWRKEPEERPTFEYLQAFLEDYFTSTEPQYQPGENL
LCK, sequence (P06239 whole entry): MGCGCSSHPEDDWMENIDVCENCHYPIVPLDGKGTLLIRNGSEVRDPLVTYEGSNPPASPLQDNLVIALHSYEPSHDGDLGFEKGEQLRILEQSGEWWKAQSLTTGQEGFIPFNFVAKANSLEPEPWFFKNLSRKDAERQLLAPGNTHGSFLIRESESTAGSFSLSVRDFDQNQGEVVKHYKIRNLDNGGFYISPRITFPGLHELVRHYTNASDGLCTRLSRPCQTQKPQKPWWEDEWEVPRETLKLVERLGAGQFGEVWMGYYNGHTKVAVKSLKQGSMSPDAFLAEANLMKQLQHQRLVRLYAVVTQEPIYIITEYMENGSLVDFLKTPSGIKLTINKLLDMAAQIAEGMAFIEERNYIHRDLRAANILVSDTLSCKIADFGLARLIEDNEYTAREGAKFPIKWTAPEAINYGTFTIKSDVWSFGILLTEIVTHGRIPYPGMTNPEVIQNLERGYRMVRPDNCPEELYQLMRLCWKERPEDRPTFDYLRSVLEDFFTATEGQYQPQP

IC50 (LCK) [nM] | IC50 (ITK) [nM] | IC50 (TEC) [nM] | IC50 (JAK3) [nM] | IC50 (SRC) [nM] | Compound
100 to 1000 | 100 to 1000 | 10 to 100 | 1000 to 10000 | 100 to 1000 | CNC(=O)N[C@@H]1CCCN(c2cnc(C(N)=O)c(Nc3cnn(C)c3)n2)[C@@H]1C [Example D-109, 3-[(1-methyl-1H-pyrazol-4-yl)amino]-5-[(2R,3R)-2-methyl-3-[(methylcarbamoyl)amino]piperidin-1-yl]pyrazine-2-carboxamide]
> 10000 | > 10000 | > 10000 | > 10000 | > 10000 | Cc1cc(Nc2nc(N3CCC[C@@H](n4ccc5cc(C6CC6)ccc5c4=O)C3)cnc2C(N)=O)sn1 [Example D-166, 5-[(3R)-3-(6-cyclopropyl-1-oxo-1,2-dihydroisoquinolin-2-yl)piperidin-1-yl]-3-[(3-methyl-1,2-thiazol-5-yl)amino]pyrazine-2-carboxamide]
100 to 1000 | 100 to 1000 | 10 to 100 | 1000 to 10000 | 100 to 1000 | C[C@@H]1[C@H](NC(=O)c2ccc(C3CC3)cc2)CCCN1c1cnc(C(N)=O)c(Nc2cnn(C)c2)n1 [Example D-135, 5-[(2R,3R)-3-(4-cyclopropylbenzamido)-2-methylpiperidin-1-yl]-3-[(1-methyl-1H-pyrazol-4-yl)amino]pyrazine-2-carboxamide]
100 to 1000 | 100 to 1000 | ≤ 10 | 1000 to 10000 | 10 to 100 | C[C@@H]1[C@H](NC(=O)c2ccc(C3CC3)cc2)CCCN1c1cnc(C(N)=O)c(Nc2ccc(N3CCC(C(C)(C)O)CC3)cc2)n1 [Example D-100, 5-[(2R,3R)-3-(4-cyclopropylbenzamido)-2-methylpiperidin-1-yl]-3-({4-[4-(2-hydroxypropan-2-yl)piperidin-1-yl]phenyl}amino)pyrazine-2-carboxamide]
1000 to 10000 | 1000 to 10000 | > 10000 | 1000 to 10000 | 1000 to 10000 | C[C@@H]1[C@H](NC(=O)N(C)C)CCCN1c1cnc(C(N)=O)c(Nc2ccc(CN3CCN(C)CC3)cc2)c1 [Example D-120, 5-[(2R,3R)-3-[(dimethylcarbamoyl)amino]-2-methylpiperidin-1-yl]-3-({4-[(4-methylpiperazin-1-yl)methyl]phenyl}amino)pyridine-2-carboxamide]
> 10000 | > 10000 | 1000 to 10000 | > 10000 | > 10000 | C[C@@H]1[C@H](NC(=O)c2ccc(C3CC3)cc2F)CCCN1c1cnc(C(N)=O)c(Nc2ccc(N3CCN(C)CC3)cn2)n1 [Example D-8, 5-[(2R,3R)-3-(4-cyclopropyl-2-fluorobenzamido)-2-methylpiperidin-1-yl]-3-{[5-(4-methylpiperazin-1-yl)pyridin-2-yl]amino}pyrazine-2-carboxamide]
1000 to 10000 | > 10000 | 1000 to 10000 | > 10000 | 1000 to 10000 | C[C@@H]1CC[C@H](NC(=O)c2ccc(C3CC3)cc2)CN1c1cnc(C(N)=O)c(Nc2cnn(C)c2)n1 [Example D-145, 5-[(2R,5S)-5-(4-cyclopropylbenzamido)-2-methylpiperidin-1-yl]-3-[(1-methyl-1H-pyrazol-4-yl)amino]pyrazine-2-carboxamide]
> 10000 | > 10000 | 100 to 1000 | > 10000 | > 10000 | C[C@@H]1[C@H](NC(=O)c2ccc(C3CC3)cc2F)CCCN1c1cnc(C(N)=O)c(Nc2ccc(S(=O)(=O)N3CCCC3)cc2)n1 [Example D-139, 5-[(2R,3R)-3-(4-cyclopropyl-2-fluorobenzamido)-2-methylpiperidin-1-yl]-3-{[4-(pyrrolidine-1-sulfonyl)phenyl]amino}pyrazine-2-carboxamide]
> 10000 | 1000 to 10000 | 10 to 100 | 1000 to 10000 | 100 to 1000 | C[C@@H]1[C@H](NC(=O)c2ccc(C3CC3)cc2)CCCN1c1cnc(C(N)=O)c(Nc2ccc(N3CCN(CC(F)(F)F)CC3)cc2)n1 [Example D-97, 5-[(2R,3R)-3-(4-cyclopropylbenzamido)-2-methylpiperidin-1-yl]-3-({4-[4-(2,2,2-trifluoroethyl)piperazin-1-yl]phenyl}amino)pyrazine-2-carboxamide]
100 to 1000 | 100 to 1000 | ≤ 10 | 1000 to 10000 | 10 to 100 | COC(C)(C)c1ccc(C(=O)N[C@@H]2CCCN(c3cnc(C(N)=O)c(Nc4cnn(C)c4)n3)[C@@H]2C)cc1 [Example D-161, 5-[(2R,3R)-3-[4-(2-methoxypropan-2-yl)benzamido]-2-methylpiperidin-1-yl]-3-[(1-methyl-1H-pyrazol-4-yl)amino]pyrazine-2-carboxamide]
100 to 1000 | 1000 to 10000 | 100 to 1000 | 100 to 1000 | 100 to 1000 | C[C@H]1CC[C@@H](NC(=O)c2ccc(C3CC3)cc2)CN1c1cnc(C(N)=O)c(Nc2ccc(N3CCN(C)CC3)cc2)n1 [Example D-154, 5-[(2S,5R)-5-(4-cyclopropylbenzamido)-2-methylpiperidin-1-yl]-3-{[4-(4-methylpiperazin-1-yl)phenyl]amino}pyrazine-2-carboxamide]
> 10000 | > 10000 | 10 to 100 | 1000 to 10000 | > 10000 | C[C@@H]1[C@H](NC(=O)c2ccc(C3CC3)cc2)CCCN1c1cnc(C(N)=O)c(Nc2ccc(N3CCC(F)(F)CC3)cc2)n1 [Example D-96, 5-[(2R,3R)-3-(4-cyclopropylbenzamido)-2-methylpiperidin-1-yl]-3-{[4-(4,4-difluoropiperidin-1-yl)phenyl]amino}pyrazine-2-carboxamide]
1000 to 10000 | 1000 to 10000 | 10 to 100 | 1000 to 10000 | 100 to 1000 | C[C@H]1CC[C@@H](NC(=O)N(C)C)CN1c1cnc(C(N)=O)c(Nc2cnn(C)c2)n1 [Example D-152, 5-[(2S,5R)-5-[(dimethylcarbamoyl)amino]-2-methylpiperidin-1-yl]-3-[(1-methyl-1H-pyrazol-4-yl)amino]pyrazine-2-carboxamide]

Source: patent US20210070748A1, “INHIBITORS OF BRUTONS TYROSINE KINASE” (Pharmacyclics LLC, priority 2015, published 2021)
